These compounds were tested against PLK1 (Homo sapiens, UniProt P53350) (assay: PLK1 protein kinase assay (CDC25C phosphorylation, [γ-32P]-ATP)). Details: Table 1; read-out: PLK1 IC50.
Assay type: biochemical

Sequence of PLK1 (P53350 whole entry): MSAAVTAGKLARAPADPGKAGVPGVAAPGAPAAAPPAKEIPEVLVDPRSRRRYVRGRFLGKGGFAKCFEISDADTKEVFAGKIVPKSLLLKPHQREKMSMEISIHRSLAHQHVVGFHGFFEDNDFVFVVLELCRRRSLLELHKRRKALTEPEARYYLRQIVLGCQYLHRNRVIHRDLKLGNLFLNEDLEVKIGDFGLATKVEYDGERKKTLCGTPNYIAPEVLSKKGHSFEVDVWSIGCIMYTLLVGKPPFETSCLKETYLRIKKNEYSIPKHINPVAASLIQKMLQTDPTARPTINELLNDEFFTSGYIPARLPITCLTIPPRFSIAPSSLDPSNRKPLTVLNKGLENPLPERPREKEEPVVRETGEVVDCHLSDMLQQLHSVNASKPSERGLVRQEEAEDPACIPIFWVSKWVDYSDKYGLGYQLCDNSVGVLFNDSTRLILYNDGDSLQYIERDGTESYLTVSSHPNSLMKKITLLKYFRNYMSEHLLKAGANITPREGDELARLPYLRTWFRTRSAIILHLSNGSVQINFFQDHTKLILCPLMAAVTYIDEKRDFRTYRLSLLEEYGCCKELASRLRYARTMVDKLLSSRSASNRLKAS

Row | IC50 [nM] | Structure (SMILES)
1 | < 10000 | COc1cc(C(=O)NC2CCN(C)CC2)ccc1Nc1ncc2c(n1)N(C1CCCCC1)CCC(=O)N2 [compound 39, 4-(9-Cyclohexyl-6-oxo-6,7,8,9-tetrahydro-5H-pyrimido[4,5-b][1,4]diazepin-2-ylamino)-3-methoxy-N-(1-methyl-piperidin-4-yl)-benzamide]

Same assay, conditions: Table 2, PLK1 IC50; class symbols; read-out: PLK1 IC50

Row | Structure (SMILES) | IC50 [nM]
2 | CCC1CN(C2CCCC2)c2nc(Nc3ccc(C(=O)NC4CCN(C)CC4)cc3OC)ncc2N(C)C1=O (stereo not shown) [compound 40, 4-(9-Cyclopentyl-7-ethyl-5-methyl-6-oxo-6,7,8,9-tetrahydro-5H-pyrimido[4,5-b][1,4]diazepin-2-ylamino)-3-methoxy-N-(1-methyl-piperidin-4-yl)-benzamide] | < 100
3 | COc1cccc(N2CCC(=O)N(C)c3cnc(Nc4ccc(C(=O)NC5CCN(C)CC5)cc4OC)nc32)c1 [compound 48, 3-Methoxy-4-[9-(3-methoxy-phenyl)-5-methyl-6-oxo-6,7,8,9-tetrahydro-5H-pyrimido[4,5-b][1,4]diazepin-2-ylamino]-N-(1-methyl-piperidin-4-yl)-benzamide] | < 10000
4 | COc1cc(C(=O)NC2CCN(C)CC2)ccc1Nc1ncc2c(n1)N(c1ccccc1F)CCC(=O)N2C [compound 52, 4-[9-(2-Fluoro-phenyl)-5-methyl-6-oxo-6,7,8,9-tetrahydro-5H-pyrimido[4,5-b][1,4]diazepin-2-ylamino]-3-methoxy-N-(1-methyl-piperidin-4-yl)-benzamide] | < 1000
5 | COc1ccccc1Nc1ncc2c(n1)N(C1CCCC1)CCC(=O)N2C [compound 60, 9-Cyclopentyl-2-(2-methoxy-phenylamine)-5-methyl-5,7,8,9-tetrahydro-pyrimido[4,5-b][1,4]diazepin-6-one] | < 1000
6 | CN1C(=O)CCN(C2CCCC2)c2nc(NCc3ccccc3)ncc21 [compound 62, 2-Benzylamino-9-cyclopentyl-5-methyl-5,7,8,9-tetrahydro-pyrimido[4,5-b][1,4]diazepin-6-one] | < 1000
7 | CCCCN1CCC(=O)N(C)c2cnc(Nc3ccc(C(=O)NC4CCN(C)CC4)cc3OC)nc21 [compound 66, 4-(9-Butyl-5-methyl-6-oxo-6,7,8,9-tetrahydro-5H-pyrimido[4,5-b][1,4]diazepin-2-ylamino)-3-methoxy-N-(1-methyl-piperidin-4-yl)-benzamide] | < 1000
8 | COc1cc(C(=O)NC2CCN(C)CC2)ccc1Nc1ncc2c(n1)N(C(C)C)CCC(=O)N2C [compound 67, 4-(9-Isopropyl-5-methyl-6-oxo-6,7,8,9 tetrahydro-5H-pyrimido[4,5-b][1,4]diazepin-2-ylamino)-3-methoxy-N-(1-methyl-piperidin-4-yl)-benzamide] | < 100
9 | COc1ccc(CNc2ncc3c(n2)N(C2CCCC2)CCC(=O)N3C)cc1 [compound 92, 9-Cyclopentyl-2-(4-methoxy-benzylamino)-5-methyl-5,7,8,9-tetrahydro-pyrimido[4,5-b][1,4]diazepin-6-one] | < 10000
10 | CN1C(=O)CCN(C2CCCC2)c2nc(NCc3cccs3)ncc21 [compound 94, 9-Cyclopentyl-5-methyl-2-[(thiophen-2-ylmethyl)-amino]-5,7,8,9-tetrahydro-pyrimido[4,5-b][1,4]diazepin-6-one] | < 10000
11 | COc1cc(C(=O)Nc2ccccc2)ccc1Nc1ncc2c(n1)N(C1CCCC1)CCC(=O)N2C [compound 95, 4-(9-Cyclopentyl-5-methyl-6-oxo-6,7,8,9-tetrahydro-5H-pyrimido[4,5-b][1,4]diazepin-2-ylamino)-3-methoxy-N-phenyl-benzamide] | < 10000
12 | COc1cc(C(=O)NC2CCN(C)CC2)ccc1Nc1ncc2c(n1)N(C1CCCC1)CC1(CCC1)C(=O)N2C [compound 100, 4-(9-Cyclopentyl-5-methyl-6-oxo-6,7,8,9-tetrahydro-5H-spiro[pyrimido[4,5-b][1,4]diazepin-3,1′-cyclobutane]-2-ylamino)-3-methoxy-N-(1-methyl-piperidin-4-yl)-benzamide] | < 100
13 | COc1cc(C(=O)NC2CCN(C)CC2)ccc1Nc1ncc2c(n1)N(C1CCCC1)CC1(CCCC1)C(=O)N2C [compound 101, 4-(9-Cyclopentyl-5-methyl-6-oxo-6,7.8,9-tetrahydro-5H-spiro[pyrimido[4,5-b][1,4]diazepin-3,1′-cyclopentane]-2-ylamino)-3-methoxy-N-(1-methyl-piperidin-4-yl)-benzamide] | < 1000
14 | C=CCN1CCC(=O)N(C)c2cnc(Nc3ccc(C(=O)NC4CCN(C)CC4)cc3OC)nc21 [compound 102, 4-(9-Allyl-5-methyl-6-oxo-6,7,8,9-tetrahydro-5H-pyrimido[4,5-b][1,4]diazepin-2-ylamino)-3-methoxy-N-(1-methyl-piperidin-4-yl)-benzamide] | < 1000
15 | CN1C(=O)CCN(C2CCCC2)c2nc(NCc3ccoc3)ncc21 [compound 107, 9-Cyclopentyl-2-[(furan-3-ylmethyl)-amino]-5-methyl-5,7,8,9-tetrahydro-pyrimido[4,5-b][1,4]diazepin-6-one] | < 10000
16 | COc1cc(C(=O)NC2CCN(C)CC2)ccc1Nc1ncc2c(n1)N(C)CCC(=O)N2C [compound 111, 4-(5,9-Dimethyl-6-oxo-6,7,8,9-tetrahydro-5H-pyrimido[4,5-b][1,4]diazepin-2-ylamino)-3-methoxy-N-(1-methyl-piperidin-4-yl)-benzamide] | < 1000

Further lines, results first:

Row | IC50 [nM] | Structure (SMILES)
17 | < 1000 | CCOc1cc(C(=O)NC2CCN(C)CC2)ccc1Nc1ncc2c(n1)N(C1CCCC1)CCC(=O)N2C [compound 59, 4-(9-Cyclopentyl-5-methyl-6-oxo-6,7,8,9-tetrahydro-5H-pyrimido[4,5-b][1,4]diazepin-2-ylamino)-3-ethoxy-N-(1-methyl-piperidin-4-yl)-benzamide]
18 | < 100 | COc1cc(C(=O)NC2CCN(C)CC2)ccc1Nc1ncc2c(n1)N(CC1CC1)CCC(=O)N2C [compound 65, 4-(9-Cyclopropylmethyl-5-methyl-6-oxo-6,7,8,9-tetrahydro-5H-pyrimido[4,5-b][1,4]diazepin-2-ylamino)-3-methoxy-N-(1-methyl-piperidin-4-yl)-benzamide]
19 | < 1000 | COc1cc(C(=O)NC2CCN(C)CC2)ccc1Nc1ncc2c(n1)N(CCC(C)C)CCC(=O)N2C [compound 68, 3-Methoxy-4-[5-methyl-9-(3-methyl-butyl)-6-oxo-6,7,8,9-tetrahydro-5H-pyrimido[4,5-b][1,4]diazepin-2-ylamino]-N-(1-methyl-piperidin-4-yl)-benzamide]
20 | < 1000 | COc1cc(C(=O)NC2CCN(C)CC2)ccc1Nc1ncc2c(n1)N(CC1CCCC1)CCC(=O)N2C [compound 69, 4-(9-Cyclopentylmethyl-5-methyl-6-oxo-6,7,8,9-tetrahydro-5H-pyrimido[4,5-b][1,4]diazepin-2-ylamino)-3-methoxy-N-(1-methyl-piperidin-4-yl)-benzamide]
21 | < 100 | COc1ccc(Nc2ncc3c(n2)N(C2CCCC2)CCC(=O)N3C)c(OC)c1 [compound 71, 9-Cyclopentyl-2-(2,4-dimethoxy-phenylamino)-5-methyl-5,7,8,9-tetrahydro-pyrimido[4,5-b][1,4]diazepin-6-one]
22 | < 1000 | CN1C(=O)CCN(C2CCCC2)c2nc(Nc3cccc4cc[nH]c34)ncc21 [compound 98, 9-Cyclopentyl-2-(1H-indol-7-ylamino)-5-methyl-5,7,8,9-tetrahydro-pyrimido[4,5-b][1,4]diazepin-6-one]
23 | < 100 | COc1cc(C(=O)NC2CCN(C)CC2)ccc1Nc1ncc2c(n1)N(C(C)C)CC1(CC1)C(=O)N2C [compound 99, 4-(9-Isopropyl-5-methyl-6-oxo-6,7,8,9-tetrahydro-5H-spiro[pyrimido[4,5-b][1,4]diazepin-3,1′-cyclopropane]-2-ylamino)-3-methoxy-N-(1-methyl-piperidin-4-yl)-benzamide]
24 | < 10000 | CN1C(=O)CCN(C2CCCC2)c2nc(NCc3ccsc3)ncc21 [compound 106, 9-Cyclopentyl-5-methyl-2-[(thiophen-3-ylmethyl)-amino]-5,7,8,9-tetrahydro-pyrimido[4,5-b][1,4]diazepin-6-one]
25 | < 10000 | CNC(=O)c1ccc(Nc2ncc3c(n2)N(C)CCC(=O)N3C)c(OC)c1 [compound 112, 4-(5,9-Dimethyl-6-oxo-6,7,8,9-tetrahydro-5H-pyrimido[4,5-b][1,4]diazepin-2-ylamino)-3-methoxy-N-methyl-benzamide]
26 | < 1000 | CNC(=O)c1ccc(Nc2ncc3c(n2)N(C(C)C)CC2(CC2)C(=O)N3C)c(OC)c1 [compound 113, 4-(9-Isopropyl-5-methyl-6-oxo-6,7,8,9-tetrahydro-5H-spiro[pyrimido[4,5-b][1,4]diazepin-3,1′-cyclopropane]-2-ylamino)-3-methoxy-N-methyl-benzamide]
27 | < 10000 | CN1C(=O)CCN(C2CCCC2)c2nc(NCc3ccc4c(c3)OCCO4)ncc21 [compound 127, 9-Cyclopentyl-2-[(2,3-dihydro-benzo[1,4]dioxin-6-ylmethyl)-amino]-5-methyl-5,7,8,9-tetrahydro-pyrimido[4,5-b][1,4]diazepin-6-one]
28 | < 10000 | CN1C(=O)CCN(C2CCCC2)c2nc(NCc3cc4ccccc4s3)ncc21 [compound 129, 2-[(Benzo[b]thiophen-2-ylmethyl)-amino]-9-cyclopentyl-5-methyl-5,7,8,9-tetrahydro-pyrimido[4,5-b][1,4]diazepin-6-one]
29 | < 10000 | Cc1cccc(CNc2ncc3c(n2)N(C2CCCC2)CCC(=O)N3C)c1 [compound 131, 9-Cyclopentyl-5-methyl-2-(3-methyl-benzylamino)-5,7,8,9-tetrahydro-pyrimido[4,5-b][1,4]diazepin-6-one]
30 | < 10000 | CNC(=O)c1cccc(Nc2ncc3c(n2)N(C2CCCC2)CCC(=O)N3C)c1C [compound 141, 3-(9-Cyctopentyl-5-methyl-6-oxo-6,7,8,9-tetrahydro-5H-pyrimido[4,5-b][1,4]diazepin-2-ylamino)-2,N-dimethyl-benzamide]
31 | < 10000 | Cc1c(Nc2ncc3c(n2)N(C2CCCC2)CCC(=O)N3C)cccc1C(=O)NCCO [compound 142, 3-(9-Cyclopentyl-5-methyl-6-oxo-6,7,8,9-tetrahydro-5H-pyrimido[4,5-b][1,4]diazepin-2-ylamino)-N-(2-hydroxy-ethyl)-2-methyl-benzamide]

From patent publication US8563542B2 (Cyclacel Limited, priority 2007, dated 2013)
